From the supplement of paper PMC11424490

What was measured:
NCI-H2122 = test: combination cScore with adagrasib (Bliss gap around IC50) (%PoC); higher = stronger additive effect
Description: (§1)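 Combination screen of 179 inhibitors with the KRAS G12C inhibitor adagrasib (MRTX849) in dose matrices, CellTiter-Glo readout in NCI-H2122 (72 h), SW837 (144 h) and NCI-H358 cells. The cScore is the mean Bliss-independence gap (expected minus observed viability, in %PoC) over a 3x3 field around the IC50s of both drugs. Positive means additive, and >~10 is stated as clear additive.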

SW837 = test: as above
Description: as §1

Compound	combination cScore with adagrasib (NCI-H2122)	combination cScore with adagrasib (SW837)
Cc1[nH]c2ccccc2c1CCNCc1ccc(/C=C/C(=O)NO)cc1 [Panobinostat] + C=C(F)C(=O)N1CCN(c2nc(OC[C@@H]3CCCN3C)nc3c2CCN(c2cccc4cccc(Cl)c24)C3)C[C@@H]1CC#N [adagrasib]	2.38	5.72
CC(C)NC[C@@H](C(=O)N1CCN(c2ncnc3c2[C@H](C)C[C@H]3O)CC1)c1ccc(Cl)cc1 [Ipatasertib] + C=C(F)C(=O)N1CCN(c2nc(OC[C@@H]3CCCN3C)nc3c2CCN(c2cccc4cccc(Cl)c24)C3)C[C@@H]1CC#N [adagrasib]	1.14	6.57
N#CC[C@H](C1CCCC1)n1cc(-c2ncnc3[nH]ccc23)cn1 [Ruxolitinib] + C=C(F)C(=O)N1CCN(c2nc(OC[C@@H]3CCCN3C)nc3c2CCN(c2cccc4cccc(Cl)c24)C3)C[C@@H]1CC#N [adagrasib]	-2.1	0.75
Nc1nc(Cl)nc2c1ncn2[C@@H]1O[C@H](CO)[C@@H](O)[C@@H]1F [Clofarabine] + C=C(F)C(=O)N1CCN(c2nc(OC[C@@H]3CCCN3C)nc3c2CCN(c2cccc4cccc(Cl)c24)C3)C[C@@H]1CC#N [adagrasib]	-3.89	1.46
Cc1ccc(NC(=O)c2ccc(CN3CCN(C)CC3)cc2)cc1Nc1nc(-c2cccnc2)cs1 [Masitinib] + C=C(F)C(=O)N1CCN(c2nc(OC[C@@H]3CCCN3C)nc3c2CCN(c2cccc4cccc(Cl)c24)C3)C[C@@H]1CC#N [adagrasib]	5.2	-2.55
NC(=O)c1cnc(N[C@@H]2CCCC[C@@H]2N)nc1Nc1cccc(-n2nccn2)c1 + C=C(F)C(=O)N1CCN(c2nc(OC[C@@H]3CCCN3C)nc3c2CCN(c2cccc4cccc(Cl)c24)C3)C[C@@H]1CC#N [adagrasib]	11.8	3.74
CCc1cccc(CC)c1NC(=O)c1nn(C)c2c1CCc1cnc(Nc3ccc(C(=O)NC4CCN(C)CC4)cc3OC(F)(F)F)nc1-2 [NMS-P715] + C=C(F)C(=O)N1CCN(c2nc(OC[C@@H]3CCCN3C)nc3c2CCN(c2cccc4cccc(Cl)c24)C3)C[C@@H]1CC#N [adagrasib]	-2.37	2.41
CCC1=C[C@@H]2CN(C1)Cc1c([nH]c3ccccc13)[C@@](C(=O)OC)(c1cc3c(cc1OC)N(C)[C@H]1[C@@](O)(C(=O)OC)[C@H](OC(C)=O)[C@]4(CC)C=CCN5CC[C@]31[C@@H]54)C2 [Vinorelbine] + C=C(F)C(=O)N1CCN(c2nc(OC[C@@H]3CCCN3C)nc3c2CCN(c2cccc4cccc(Cl)c24)C3)C[C@@H]1CC#N [adagrasib]	-8.58	3.93
Cc1ccc(NC(=O)c2ccc(CN3CCN(C)CC3)cc2)cc1Nc1nccc(-c2cccnc2)n1 [Imatinib] + C=C(F)C(=O)N1CCN(c2nc(OC[C@@H]3CCCN3C)nc3c2CCN(c2cccc4cccc(Cl)c24)C3)C[C@@H]1CC#N [adagrasib]	-0.92	-2.11
Cc1cn(-c2cc(NC(=O)c3ccc(C)c(Nc4nccc(-c5cccnc5)n4)c3)cc(C(F)(F)F)c2)cn1 [Nilotinib] + C=C(F)C(=O)N1CCN(c2nc(OC[C@@H]3CCCN3C)nc3c2CCN(c2cccc4cccc(Cl)c24)C3)C[C@@H]1CC#N [adagrasib]	10.6	9.6
N[C@H]1CC[C@H](N[C@@H]2C[C@H]2c2ccccc2)CC1 [ORY-1001] + C=C(F)C(=O)N1CCN(c2nc(OC[C@@H]3CCCN3C)nc3c2CCN(c2cccc4cccc(Cl)c24)C3)C[C@@H]1CC#N [adagrasib]	-4.53	2.12
CN(C)c1ccccc1CN1CCCN(Cc2ccccc2N(C)C)C1c1ccncc1 [GANT61] + C=C(F)C(=O)N1CCN(c2nc(OC[C@@H]3CCCN3C)nc3c2CCN(c2cccc4cccc(Cl)c24)C3)C[C@@H]1CC#N [adagrasib]	7.28	-0.37
O=C(/C=C\n1cnc(-c2cc(C(F)(F)F)cc(C(F)(F)F)c2)n1)NNc1cnccn1 [KPT-330] + C=C(F)C(=O)N1CCN(c2nc(OC[C@@H]3CCCN3C)nc3c2CCN(c2cccc4cccc(Cl)c24)C3)C[C@@H]1CC#N [adagrasib]	8.01	3.48
CC1(C)CCC(CN2CCN(c3ccc(C(=O)NS(=O)(=O)c4ccc(NCC5CCOCC5)c([N+](=O)[O-])c4)c(Oc4cnc5[nH]ccc5c4)c3)CC2)=C(c2ccc(Cl)cc2)C1 [ABT-199] + C=C(F)C(=O)N1CCN(c2nc(OC[C@@H]3CCCN3C)nc3c2CCN(c2cccc4cccc(Cl)c24)C3)C[C@@H]1CC#N [adagrasib]	3.14	-3.71
c1ccc(-c2nn3c(c2-c2ccnc4cc(OCCN5CCOCC5)ccc24)CCC3)nc1 + C=C(F)C(=O)N1CCN(c2nc(OC[C@@H]3CCCN3C)nc3c2CCN(c2cccc4cccc(Cl)c24)C3)C[C@@H]1CC#N [adagrasib]	-21.2	0.67
COc1cc2nccc(Oc3ccc(NC(=O)C4(C(=O)Nc5ccc(F)cc5)CC4)cc3)c2cc1OC [XL-184] + C=C(F)C(=O)N1CCN(c2nc(OC[C@@H]3CCCN3C)nc3c2CCN(c2cccc4cccc(Cl)c24)C3)C[C@@H]1CC#N [adagrasib]	4.53	9.25
Nc1nc(F)nc2c1ncn2[C@@H]1O[C@H](CO)[C@@H](O)[C@@H]1O [Fludarabine] + C=C(F)C(=O)N1CCN(c2nc(OC[C@@H]3CCCN3C)nc3c2CCN(c2cccc4cccc(Cl)c24)C3)C[C@@H]1CC#N [adagrasib]	-6.95	2.57
CCN(CC)CCNC(=O)c1c(C)[nH]c(/C=C2\C(=O)Nc3ccc(F)cc32)c1C [Sunitinib] + C=C(F)C(=O)N1CCN(c2nc(OC[C@@H]3CCCN3C)nc3c2CCN(c2cccc4cccc(Cl)c24)C3)C[C@@H]1CC#N [adagrasib]	1.03	4.56
Nc1ccn([C@@H]2O[C@H](CO)[C@@H](O)[C@@H]2O)c(=O)n1 [Cytarabin] + C=C(F)C(=O)N1CCN(c2nc(OC[C@@H]3CCCN3C)nc3c2CCN(c2cccc4cccc(Cl)c24)C3)C[C@@H]1CC#N [adagrasib]	-0.23	6.75
CS(=O)(=O)c1ccc(C(=O)Nc2ccc(Cl)c(-c3ccccn3)c2)c(Cl)c1 [Vismodegib] + C=C(F)C(=O)N1CCN(c2nc(OC[C@@H]3CCCN3C)nc3c2CCN(c2cccc4cccc(Cl)c24)C3)C[C@@H]1CC#N [adagrasib]	3.61	15.7
Cn1c(=O)n(-c2ccc(C(C)(C)C#N)cc2)c2c3cc(-c4cnc5ccccc5c4)ccc3ncc21 [NVP-BEZ235] + C=C(F)C(=O)N1CCN(c2nc(OC[C@@H]3CCCN3C)nc3c2CCN(c2cccc4cccc(Cl)c24)C3)C[C@@H]1CC#N [adagrasib]	3.55	6.19
CCOC(=O)CCNc1cc(N2CCc3ccccc3CC2)nc(-c2ccccn2)n1 [GSK-J4] + C=C(F)C(=O)N1CCN(c2nc(OC[C@@H]3CCCN3C)nc3c2CCN(c2cccc4cccc(Cl)c24)C3)C[C@@H]1CC#N [adagrasib]	17.9	0.593
CO[C@H]1C[C@@H]2CC[C@@H](C)[C@@](O)(O2)C(=O)C(=O)N2CCCC[C@H]2C(=O)O[C@H]([C@H](C)C[C@@H]2CC[C@@H](O)[C@H](OC)C2)CC(=O)[C@H](C)/C=C(\C)[C@@H](O)[C@@H](OC)C(=O)[C@H](C)C[C@H](C)/C=C/C=C/C=C/1C [Rapamycin] + C=C(F)C(=O)N1CCN(c2nc(OC[C@@H]3CCCN3C)nc3c2CCN(c2cccc4cccc(Cl)c24)C3)C[C@@H]1CC#N [adagrasib]	4.11	6.52
CO[C@@]12[C@H](COC(N)=O)C3=C(C(=O)C(C)=C(N)C3=O)N1C[C@@H]1N[C@@H]12 [Mitomycin C] + C=C(F)C(=O)N1CCN(c2nc(OC[C@@H]3CCCN3C)nc3c2CCN(c2cccc4cccc(Cl)c24)C3)C[C@@H]1CC#N [adagrasib]	0.77	-3.24
C[C@H](CS)C(=O)N1CCC[C@H]1C(=O)O [Captopril] + C=C(F)C(=O)N1CCN(c2nc(OC[C@@H]3CCCN3C)nc3c2CCN(c2cccc4cccc(Cl)c24)C3)C[C@@H]1CC#N [adagrasib]	-0.24	-3.8
COc1ccc(Cn2ccc3ccc(C(=O)NO)cc32)cc1 + C=C(F)C(=O)N1CCN(c2nc(OC[C@@H]3CCCN3C)nc3c2CCN(c2cccc4cccc(Cl)c24)C3)C[C@@H]1CC#N [adagrasib]	2.01	1.45
Nc1cccc2c1CN(C1CCC(=O)NC1=O)C2=O (stereo not drawn) [Lenalidomide] + C=C(F)C(=O)N1CCN(c2nc(OC[C@@H]3CCCN3C)nc3c2CCN(c2cccc4cccc(Cl)c24)C3)C[C@@H]1CC#N [adagrasib]	-12.8	-3.14
CS(=O)(=O)c1ccc(-c2cnc(N)c(C(=O)Nc3ccccc3)n2)cc1 [VE-821] + C=C(F)C(=O)N1CCN(c2nc(OC[C@@H]3CCCN3C)nc3c2CCN(c2cccc4cccc(Cl)c24)C3)C[C@@H]1CC#N [adagrasib]	4.3	12.8
COc1cc(OC)c(/C=C/S(=O)(=O)Cc2ccc(OC)c(NCC(=O)O)c2)c(OC)c1 [Rigosertib] + C=C(F)C(=O)N1CCN(c2nc(OC[C@@H]3CCCN3C)nc3c2CCN(c2cccc4cccc(Cl)c24)C3)C[C@@H]1CC#N [adagrasib]	1.67	7.78
